In the kinase profiling compilation of Christmann-Franck et al. (2016):

Key:
Test in all cases: Caliper, Mobility shift assay off-chip
[1] = target: ABL1 (human) (UniProt P00519)
[2] = target: AKT1 (human) (UniProt P31749)
[3] = target: AKT2 (human) (UniProt P31751)
[4] = target: AKT3 (human) (UniProt Q9Y243)
[5] = target: ALK (human) (UniProt Q9UM73)
[6] = target: AURKA (human) (UniProt O14965)
[7] = target: BMX (human) (UniProt P51813)
[8] = target: CAMK2D (human) (UniProt Q13557)
[9] = target: CAMK4 (human) (UniProt Q16566)
[10] = target: CDK2 (human) (UniProt P24941)
[11] = target: CSNK1A1 (human) (UniProt P48729)
[12] = target: DCLK2 (human) (UniProt Q8N568)
[13] = target: EGFR (human) (UniProt P00533)
[14] = tested on: EGFR (human), P00533 [T790M/L858R]
[15] = target: FER (human) (UniProt P16591)
[16] = target: FGFR1 (human) (UniProt P11362)
[17] = target: LYN (human) (UniProt P07948)
[18] = target: MAP4K4 (human) (UniProt O95819)
[19] = target: MAPK3 (human) (UniProt P27361)
[20] = target: MAPKAPK5 (human) (UniProt Q8IW41)
[21] = target: MELK (human) (UniProt Q14680)
[22] = target: PAK2 (human) (UniProt Q13177)
[23] = target: PHKG2 (human) (UniProt P15735)
[24] = target: PIM3 (human) (UniProt Q86V86)
[25] = target: PRKCB2 (human) (UniProt P05771)
[26] = target: PTK2B (human) (UniProt Q14289)
[27] = target: RET (human) (UniProt P07949)
[28] = target: RPS6KA1 KD1 KD2 (human) (UniProt Q15418)
[29] = target: RPS6KA3 KD1 KD2 (human) (UniProt P51812)
[30] = target: SGK1 (human) (UniProt O00141)
[31] = target: STK3 (human) (UniProt Q13188)
[32] = target: SYK (human) (UniProt P43405)
[33] = target: TYRO3 (human) (UniProt Q06418)

PRKCB2 (human), sequence (P05771 whole entry, looked up): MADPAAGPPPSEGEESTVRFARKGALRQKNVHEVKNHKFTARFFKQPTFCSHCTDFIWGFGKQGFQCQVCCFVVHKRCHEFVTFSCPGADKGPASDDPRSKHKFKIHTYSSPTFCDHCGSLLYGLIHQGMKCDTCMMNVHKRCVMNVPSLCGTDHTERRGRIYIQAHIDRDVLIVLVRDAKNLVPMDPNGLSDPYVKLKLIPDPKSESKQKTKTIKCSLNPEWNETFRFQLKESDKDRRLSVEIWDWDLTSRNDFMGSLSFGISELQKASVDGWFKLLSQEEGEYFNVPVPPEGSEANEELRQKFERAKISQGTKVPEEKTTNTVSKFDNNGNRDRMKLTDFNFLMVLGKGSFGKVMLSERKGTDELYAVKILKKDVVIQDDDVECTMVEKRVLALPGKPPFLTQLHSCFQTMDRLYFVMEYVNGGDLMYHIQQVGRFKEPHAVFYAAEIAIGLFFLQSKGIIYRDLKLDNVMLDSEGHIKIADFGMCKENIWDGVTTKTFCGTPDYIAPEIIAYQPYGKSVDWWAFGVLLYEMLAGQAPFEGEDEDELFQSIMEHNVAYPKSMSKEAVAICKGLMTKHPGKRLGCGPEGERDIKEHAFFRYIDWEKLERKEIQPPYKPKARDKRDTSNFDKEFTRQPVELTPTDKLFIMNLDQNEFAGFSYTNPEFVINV
LYN (human), sequence (P07948 whole entry, looked up): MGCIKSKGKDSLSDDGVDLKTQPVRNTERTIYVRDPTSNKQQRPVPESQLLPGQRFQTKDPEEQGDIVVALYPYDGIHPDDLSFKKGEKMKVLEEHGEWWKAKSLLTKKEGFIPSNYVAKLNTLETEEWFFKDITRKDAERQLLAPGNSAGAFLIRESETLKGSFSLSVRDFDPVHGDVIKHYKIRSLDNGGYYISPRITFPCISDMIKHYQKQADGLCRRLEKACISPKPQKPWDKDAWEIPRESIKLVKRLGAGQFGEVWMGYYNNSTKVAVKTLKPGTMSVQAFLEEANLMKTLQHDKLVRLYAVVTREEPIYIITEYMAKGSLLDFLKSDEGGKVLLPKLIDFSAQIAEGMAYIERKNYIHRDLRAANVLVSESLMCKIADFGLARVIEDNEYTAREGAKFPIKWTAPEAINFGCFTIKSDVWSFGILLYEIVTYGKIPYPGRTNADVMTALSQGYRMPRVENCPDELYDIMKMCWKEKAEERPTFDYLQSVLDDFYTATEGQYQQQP
AURKA (human), sequence (O14965 whole entry, looked up): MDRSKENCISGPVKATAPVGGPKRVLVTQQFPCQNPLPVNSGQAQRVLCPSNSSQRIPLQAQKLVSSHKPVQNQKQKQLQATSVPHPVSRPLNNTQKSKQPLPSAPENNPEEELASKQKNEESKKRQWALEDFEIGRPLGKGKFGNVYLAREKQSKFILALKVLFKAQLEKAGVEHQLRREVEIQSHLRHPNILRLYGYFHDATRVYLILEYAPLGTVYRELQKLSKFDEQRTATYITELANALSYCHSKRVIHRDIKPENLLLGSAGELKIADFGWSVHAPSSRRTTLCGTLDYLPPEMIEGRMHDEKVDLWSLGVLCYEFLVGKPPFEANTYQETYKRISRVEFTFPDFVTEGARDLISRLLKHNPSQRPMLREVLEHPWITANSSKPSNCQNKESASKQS
CSNK1A1 (human), sequence (P48729 whole entry, looked up): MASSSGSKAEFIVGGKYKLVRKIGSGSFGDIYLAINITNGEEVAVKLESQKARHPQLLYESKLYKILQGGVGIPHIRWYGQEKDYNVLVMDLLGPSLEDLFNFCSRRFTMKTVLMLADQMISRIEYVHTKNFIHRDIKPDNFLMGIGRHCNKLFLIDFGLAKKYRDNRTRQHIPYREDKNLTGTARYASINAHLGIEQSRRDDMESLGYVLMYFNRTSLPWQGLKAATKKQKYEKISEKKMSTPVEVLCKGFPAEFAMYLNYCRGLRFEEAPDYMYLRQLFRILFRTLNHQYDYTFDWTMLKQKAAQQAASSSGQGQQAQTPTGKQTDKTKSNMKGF
MAPKAPK5 (human), sequence (Q8IW41 whole entry, looked up): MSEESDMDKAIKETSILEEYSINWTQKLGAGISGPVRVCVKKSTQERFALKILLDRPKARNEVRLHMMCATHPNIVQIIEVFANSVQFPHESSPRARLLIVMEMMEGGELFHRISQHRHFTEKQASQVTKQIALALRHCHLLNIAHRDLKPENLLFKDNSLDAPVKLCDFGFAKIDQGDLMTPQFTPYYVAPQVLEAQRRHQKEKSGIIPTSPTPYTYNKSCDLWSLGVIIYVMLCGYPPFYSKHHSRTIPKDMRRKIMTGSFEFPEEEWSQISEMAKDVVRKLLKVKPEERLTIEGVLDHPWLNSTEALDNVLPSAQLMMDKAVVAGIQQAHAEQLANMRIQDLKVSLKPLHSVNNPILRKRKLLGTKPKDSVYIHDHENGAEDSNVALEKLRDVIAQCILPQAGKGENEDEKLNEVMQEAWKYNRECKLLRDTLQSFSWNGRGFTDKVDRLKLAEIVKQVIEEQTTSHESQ
EGFR (human), P00533 [T790M/L858R], sequence (P00533 whole entry T790M/L858R, looked up): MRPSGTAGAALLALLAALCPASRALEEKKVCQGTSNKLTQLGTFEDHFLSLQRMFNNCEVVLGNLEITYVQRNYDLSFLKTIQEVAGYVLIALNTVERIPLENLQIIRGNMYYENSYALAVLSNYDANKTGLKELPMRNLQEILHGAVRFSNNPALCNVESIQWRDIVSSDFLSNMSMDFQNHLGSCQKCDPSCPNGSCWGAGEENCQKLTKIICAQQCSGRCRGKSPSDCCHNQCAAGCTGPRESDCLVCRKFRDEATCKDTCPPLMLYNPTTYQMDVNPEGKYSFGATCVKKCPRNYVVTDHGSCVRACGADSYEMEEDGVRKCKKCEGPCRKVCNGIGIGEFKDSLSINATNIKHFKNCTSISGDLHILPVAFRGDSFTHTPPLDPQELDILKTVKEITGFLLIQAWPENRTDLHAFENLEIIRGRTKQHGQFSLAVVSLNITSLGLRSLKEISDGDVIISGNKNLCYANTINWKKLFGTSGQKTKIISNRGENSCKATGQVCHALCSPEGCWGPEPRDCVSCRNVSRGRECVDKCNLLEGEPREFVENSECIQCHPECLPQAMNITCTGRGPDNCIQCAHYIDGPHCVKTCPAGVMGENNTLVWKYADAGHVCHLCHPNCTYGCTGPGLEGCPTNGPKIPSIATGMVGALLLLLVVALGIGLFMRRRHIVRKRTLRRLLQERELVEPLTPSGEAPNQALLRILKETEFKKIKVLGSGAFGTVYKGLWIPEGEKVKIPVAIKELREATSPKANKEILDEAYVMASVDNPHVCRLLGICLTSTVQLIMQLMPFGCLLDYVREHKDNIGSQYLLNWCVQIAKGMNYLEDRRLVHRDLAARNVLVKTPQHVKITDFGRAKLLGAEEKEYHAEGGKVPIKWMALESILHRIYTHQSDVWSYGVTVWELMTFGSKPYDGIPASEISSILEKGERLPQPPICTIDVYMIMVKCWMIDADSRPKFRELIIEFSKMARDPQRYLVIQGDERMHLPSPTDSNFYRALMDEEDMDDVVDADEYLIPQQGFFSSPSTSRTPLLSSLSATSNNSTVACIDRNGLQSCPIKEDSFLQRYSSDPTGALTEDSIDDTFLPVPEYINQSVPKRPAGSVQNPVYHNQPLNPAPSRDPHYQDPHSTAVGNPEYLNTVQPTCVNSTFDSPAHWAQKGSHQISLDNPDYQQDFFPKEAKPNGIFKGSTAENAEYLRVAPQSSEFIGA
PAK2 (human), sequence (Q13177 whole entry, looked up): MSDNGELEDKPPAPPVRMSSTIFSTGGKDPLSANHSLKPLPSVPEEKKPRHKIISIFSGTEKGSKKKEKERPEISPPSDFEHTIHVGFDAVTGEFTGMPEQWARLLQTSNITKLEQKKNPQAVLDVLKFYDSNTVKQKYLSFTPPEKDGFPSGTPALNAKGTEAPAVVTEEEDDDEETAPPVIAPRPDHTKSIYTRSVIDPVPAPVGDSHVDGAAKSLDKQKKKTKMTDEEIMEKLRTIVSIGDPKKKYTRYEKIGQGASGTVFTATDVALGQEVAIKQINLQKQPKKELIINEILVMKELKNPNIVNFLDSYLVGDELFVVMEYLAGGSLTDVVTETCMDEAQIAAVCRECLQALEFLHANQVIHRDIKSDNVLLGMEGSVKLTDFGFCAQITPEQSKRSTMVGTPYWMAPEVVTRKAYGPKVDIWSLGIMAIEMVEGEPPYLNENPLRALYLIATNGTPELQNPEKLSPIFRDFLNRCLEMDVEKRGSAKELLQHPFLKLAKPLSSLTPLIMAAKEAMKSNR
PHKG2 (human), sequence (P15735 whole entry, looked up): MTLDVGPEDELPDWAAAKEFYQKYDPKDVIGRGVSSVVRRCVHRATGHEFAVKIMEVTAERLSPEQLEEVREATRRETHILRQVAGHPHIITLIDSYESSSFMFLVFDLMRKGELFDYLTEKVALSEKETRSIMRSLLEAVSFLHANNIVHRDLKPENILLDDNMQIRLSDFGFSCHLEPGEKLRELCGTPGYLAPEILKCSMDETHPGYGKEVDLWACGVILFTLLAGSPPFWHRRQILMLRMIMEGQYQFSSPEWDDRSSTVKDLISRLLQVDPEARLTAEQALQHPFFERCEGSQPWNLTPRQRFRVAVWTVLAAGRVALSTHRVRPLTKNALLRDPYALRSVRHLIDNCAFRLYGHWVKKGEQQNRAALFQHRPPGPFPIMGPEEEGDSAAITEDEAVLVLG

## O=C(CCc1ccc2ccc3ncc(C4CCNCC4)cc3c(=O)c2c1)NCc1ccccn1
[1]; compound 0.1 µM
  inhibition: -1%
[1]; compound 1.0 µM
  inhibition: 1.6%
[2]; compound 0.1 µM
  inhibition: -7.2%
[2]; compound 1.0 µM
  inhibition: 1.7%
[3]; compound 0.1 µM
  inhibition: -1.5%
[3]; compound 1.0 µM
  inhibition: 3.1%
[4]; compound 0.1 µM
  inhibition: -12.5%
[4]; compound 1.0 µM
  inhibition: 2.1%
[5]; compound 0.1 µM
  inhibition: 6.9%
[5]; compound 1.0 µM
  inhibition: -9.5%
[6]; compound 0.1 µM
  inhibition: 3.7%
[6]; compound 1.0 µM
  inhibition: 22.4%
[7]; compound 0.1 µM
  inhibition: -10.4%
[7]; compound 1.0 µM
  inhibition: 3.2%
[8]; compound 0.1 µM
  inhibition: -22.5%
[8]; compound 1.0 µM
  inhibition: -4.6%
[9]; compound 0.1 µM
  inhibition: -1.7%
[9]; compound 1.0 µM
  inhibition: -3.4%
[10]; compound 0.1 µM
  inhibition: -10%
[10]; compound 1.0 µM
  inhibition: -6.6%
[11]; compound 0.1 µM
  inhibition: 5%
[11]; compound 1.0 µM
  inhibition: -0.6%
[12]; compound 0.1 µM
  inhibition: 2%
[12]; compound 1.0 µM
  inhibition: 5.8%
[13]; compound 0.1 µM
  inhibition: -5.8%
[13]; compound 1.0 µM
  inhibition: 9.3%
[14]; compound 0.1 µM
  inhibition: -0.8%
[14]; compound 1.0 µM
  inhibition: -3.6%
[15]; compound 0.1 µM
  inhibition: -14.2%
[15]; compound 1.0 µM
  inhibition: 0.5%
[16]; compound 0.1 µM
  inhibition: 1.5%
[16]; compound 1.0 µM
  inhibition: -7.9%
[17]; compound 0.1 µM
  inhibition: 3.5%
[17]; compound 1.0 µM
  inhibition: -3.2%
[18]; compound 0.1 µM
  inhibition: 5%
[18]; compound 1.0 µM
  inhibition: -0.2%
[19]; compound 0.1 µM
  inhibition: 1.7%
[19]; compound 1.0 µM
  inhibition: -0.5%
[20]; compound 0.1 µM
  inhibition: -4.3%
[20]; compound 1.0 µM
  inhibition: 2.9%
[21]; compound 0.1 µM
  inhibition: 2.7%
[21]; compound 1.0 µM
  inhibition: 5.7%
[22]; compound 0.1 µM
  inhibition: 2.1%
[22]; compound 1.0 µM
  inhibition: 13.1%
[23]; compound 0.1 µM
  inhibition: 1%
[23]; compound 1.0 µM
  inhibition: -4.4%
[24]; compound 0.1 µM
  inhibition: -3.4%
[24]; compound 1.0 µM
  inhibition: 0.3%
[25]; compound 0.1 µM
  inhibition: 3.3%
[25]; compound 1.0 µM
  inhibition: -13.3%
[26]; compound 0.1 µM
  inhibition: 10%
[26]; compound 1.0 µM
  inhibition: 2.5%
[27]; compound 0.1 µM
  inhibition: 1.9%
[27]; compound 1.0 µM
  inhibition: 2.8%
[28]; compound 0.1 µM
  inhibition: -2.2%
[28]; compound 1.0 µM
  inhibition: 4%
[29]; compound 0.1 µM
  inhibition: 0.7%
[29]; compound 1.0 µM
  inhibition: 62.5%
[30]; compound 0.1 µM
  inhibition: -2.2%
[30]; compound 1.0 µM
  inhibition: -6%
[31]; compound 0.1 µM
  inhibition: 1.9%
[31]; compound 1.0 µM
  inhibition: 4.5%
[32]; compound 0.1 µM
  inhibition: -0.6%
[32]; compound 1.0 µM
  inhibition: -0.5%
[33]; compound 0.1 µM
  inhibition: 4.1%
[33]; compound 1.0 µM
  inhibition: 4.2%
